Source: patent US8507538B2, “Selective heterocyclic sphingosine 1 phosphate receptor modulators” (Receptos, Inc., priority 2009, dated 2013)
Where two headings read alike, the source gives them in different places.

Tests used:
S1P1/EDG1 = S1P1/EDG1 (Homo sapiens, UniProt P21453); assay: S1P1 CRE-bla CHOK1 reporter assay (inhibition of Forskolin induced cAMP); type: cell-based
Procedure, shortened: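 Stable CRE-bla CHO-K1 clone expressing human S1P1, serum-starved (0.5% stripped serum) 18 h, then treated with compound (10-point curve) plus 2 μM forskolin for 4 h at 37 °C. β-lactamase FRET ratio (458/522 nm) read after 2 h substrate loading; EC50 for inhibition of forskolin-induced cAMP by non-linear regression.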

S1P4 = biological target: T1, S1P4 (Homo sapiens, UniProt O95977); assay: Specificity over other S1P receptors: S1P4-bla TANGO U2OS; type: cell-based; settings: without Forskolin, FreeStyle Expression medium; read-out: S1P4 agonist value (EC50)
T1 construct: Tango fusion (own knowledge: TEV protease site + GAL4-VP16 transcription factor fused to the receptor's C-terminus); host or cells: Tango bla U2OS
T1 sequence (O95977 1-384): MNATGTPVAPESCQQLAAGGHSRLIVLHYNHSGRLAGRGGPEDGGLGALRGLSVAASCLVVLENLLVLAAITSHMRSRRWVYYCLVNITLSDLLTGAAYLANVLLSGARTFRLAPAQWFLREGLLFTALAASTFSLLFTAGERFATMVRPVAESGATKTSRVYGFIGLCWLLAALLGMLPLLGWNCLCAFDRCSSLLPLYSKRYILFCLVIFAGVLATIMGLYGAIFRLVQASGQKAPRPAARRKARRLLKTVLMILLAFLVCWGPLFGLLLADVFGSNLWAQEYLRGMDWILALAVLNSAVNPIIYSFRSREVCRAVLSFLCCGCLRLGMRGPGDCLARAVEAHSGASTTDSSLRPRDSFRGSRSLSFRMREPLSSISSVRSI
Procedure: (§1) Cells were seeded into 384-well black wall/clear bottom plates at 10^4 cells/well/19.5 μl assay media (DMEM-phenol free, 0.5% charcoal/dextran stripped serum, 2 mM glutamine, 0.1 mM NEAA, 1 mM Na-Pyruvate, 25 mM Hepes) and incubated for 18 hrs at 37° C. in 5% CO2. Dose response curves (10-point) were generated in 10 mM Hepes, 0.1% Pluronic F127, in the presence of Forskolin. Cells were treated with 0.5 μl compound in the presence of 2 μM Forskolin for 4 hrs at 37° C. The FRET-based β-lactamase fluorescent substrate (LiveBLAzer™ FRET B/G Loading Kit CC4-AM; Invitrogen) was prepared according to manufacturer's directions, and incubated with cells for 2 hrs at room temperature. Plates were read at Ex:410/Em:458 and Ex:410/Em:522, and the response ratio determined. Data was analyzed by non-linear regression to determine the EC50 for inhibition of Forskolin induced cAMP.
(§2) To assess compound specificity on other S1P receptors the following cell lines were used: S1P2 CRE-bla CHOK1, S1P3-Gα15 NFAT-bla HEK293T (Invitrogen), S1P4-bla TANGO U2OS (Invitrogen), S1P5-bla TANGO U2OS (Invitrogen). The same assay set up for S1P1 was used but without Forskolin. S1P4 and S1P5 assays were performed in FreeStyle Expression medium (Invitrogen). S1P5 cells were incubated for 48 hrs in prior to treatment with compound.

[1] = tested on: CD4 or CD8 positive T cells; assay: Lymphopenia in rats; type: in vivo; settings: rat, 24 h after a 0.2 mg/kg single dose
Procedure: In rats: Female rats (Simonsen Laboratories, Gilroy Calif.) were housed in an ALAAC accredited facility and the research was approved by the facilities Institutional Animal Care and Use Committee (IACUC). The animals were acclimated to the laboratory for at least 5 days prior to initiation of experiments. Rats (n=3/compound/time-point) were dosed by oral gavage with 1 mg/kg compound formulated in a vehicle consisting of 5% DMSO/5% Tween 20 and 90% 0.1N HCL. Control rats were dosed PO with the vehicle. Whole blood was collected from isoflurane anesthetized rats via the retro-orbital sinus and terminal samples were collected by cardiac puncture into EDTA. Whole blood was incubated with mouse anti-rat CD32 (BD #550271), PE-mouse anti-rat CD45R/B220 (BD #554881), PECy5-mouse anti-rat CD4 (BD #554839), and APC-mouse anti-rat CD8a (eBioscience #17-0084) for 30 minutes on ice. Red blood cells were lysed using BD Pharm. Lyse Lysing buffer (#555899) and white blood cells were analyzed with a BD FACSArray. Lymphopenia was expressed as the % of white blood cells that were CD4 or CD8 positive T cells. The overall lymphopenia response over 24 h was estimated by calculating the area under the effect curve (AUEC) using the linear trapezoidal rule. In some experiments, total lymphocyte counts were determined using a standard impediance based veterinary hematology analyzer (IDEXX Preclinical Research Services, Sacramento, Calif.).
The percentage of lymphopenia at 24 h after a 0.2 mg/kg single dose regiment is reported. […] N/A is not available.

S1P3 = biological target: T2, S1P3 (Homo sapiens, UniProt Q99500); assay: Specificity over other S1P receptors: S1P3-Gα15 NFAT-bla HEK293T; type: cell-based; settings: without Forskolin; read-out: S1P3 agonist value (EC50)
T2 construct: host or cells: NFAT-bla HEK293T co-expressing Gα15
T2 sequence (Q99500 whole entry): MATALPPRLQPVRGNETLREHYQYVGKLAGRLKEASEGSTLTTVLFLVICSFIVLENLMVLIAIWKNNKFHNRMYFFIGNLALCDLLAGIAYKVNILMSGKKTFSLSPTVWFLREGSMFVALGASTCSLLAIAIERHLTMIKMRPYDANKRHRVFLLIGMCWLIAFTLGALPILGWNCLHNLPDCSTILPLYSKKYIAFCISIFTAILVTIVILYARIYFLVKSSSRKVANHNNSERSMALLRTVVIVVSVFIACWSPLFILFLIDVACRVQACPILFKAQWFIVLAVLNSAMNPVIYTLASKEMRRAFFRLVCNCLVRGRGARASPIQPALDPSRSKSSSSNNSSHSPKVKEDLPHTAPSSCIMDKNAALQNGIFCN
Procedure: as §1, §2

S1P5 = biological target: T3, S1P5 (Homo sapiens, UniProt Q9H228); assay: Specificity over other S1P receptors: S1P5-bla TANGO U2OS; type: cell-based; settings: without Forskolin, FreeStyle Expression medium; read-out: S1P5 agonist value (EC50)
T3 construct: Tango fusion (own knowledge: TEV protease site + GAL4-VP16 transcription factor fused to the receptor's C-terminus); host or cells: Tango bla U2OS
T3 sequence (Q9H228 whole entry, the tested form may be a part): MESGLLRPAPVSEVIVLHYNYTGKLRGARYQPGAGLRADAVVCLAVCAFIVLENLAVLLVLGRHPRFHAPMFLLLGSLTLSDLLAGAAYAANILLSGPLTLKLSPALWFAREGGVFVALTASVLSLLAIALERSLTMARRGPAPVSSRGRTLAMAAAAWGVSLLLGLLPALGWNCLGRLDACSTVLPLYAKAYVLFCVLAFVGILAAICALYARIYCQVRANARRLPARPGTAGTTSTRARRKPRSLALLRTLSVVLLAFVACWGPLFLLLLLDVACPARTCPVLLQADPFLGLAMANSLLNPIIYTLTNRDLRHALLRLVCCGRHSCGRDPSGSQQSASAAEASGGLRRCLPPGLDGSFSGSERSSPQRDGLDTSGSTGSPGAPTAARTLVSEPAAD
Procedure: as §1, §2

S1P2 = biological target: T4, S1P2 (Homo sapiens, UniProt O95136); assay: Specificity over other S1P receptors: S1P2 CRE-bla CHOK1; type: cell-based; settings: without Forskolin; read-out: S1P2 agonist value (EC50)
T4 construct: expressed in transfected cells; host or cells: CRE-bla CHOK1
T4 sequence (O95136 whole entry, species assumed): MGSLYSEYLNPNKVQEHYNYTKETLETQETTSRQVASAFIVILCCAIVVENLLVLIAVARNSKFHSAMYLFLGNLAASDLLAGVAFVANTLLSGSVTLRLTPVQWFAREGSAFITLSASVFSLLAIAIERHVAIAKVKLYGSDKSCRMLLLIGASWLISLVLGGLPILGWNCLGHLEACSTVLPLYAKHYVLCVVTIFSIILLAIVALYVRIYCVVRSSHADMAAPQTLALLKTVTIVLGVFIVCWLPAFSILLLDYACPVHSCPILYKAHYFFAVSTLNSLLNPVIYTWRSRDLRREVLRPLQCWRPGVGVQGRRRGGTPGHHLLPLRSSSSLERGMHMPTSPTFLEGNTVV
Procedure: as §1, §2

[2] = Table 3, read-out: S1P1 agonist value (EC50)

S1P1/EDG1, sequence (P21453 whole entry): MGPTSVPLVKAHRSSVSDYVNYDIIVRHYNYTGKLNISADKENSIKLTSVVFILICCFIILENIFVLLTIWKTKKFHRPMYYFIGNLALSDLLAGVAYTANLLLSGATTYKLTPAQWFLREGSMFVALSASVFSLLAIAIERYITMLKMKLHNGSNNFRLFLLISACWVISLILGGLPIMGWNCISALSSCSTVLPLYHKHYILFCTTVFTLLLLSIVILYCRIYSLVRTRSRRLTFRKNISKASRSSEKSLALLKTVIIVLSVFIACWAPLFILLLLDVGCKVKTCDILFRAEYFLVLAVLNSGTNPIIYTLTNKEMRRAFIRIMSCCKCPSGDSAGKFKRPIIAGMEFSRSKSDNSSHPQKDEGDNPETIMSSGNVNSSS

CC(C)Oc1ccc(-c2nnc(-c3cccc4c3CC[C@@H]4NS(N)(=O)=O)s2)cc1C#N [Compound 47, (S)-N-(4-(5-(3-cyano-4-isopropoxyphenyl)-1,3,4-thiadiazol-2-yl)-2,3-dihydro-1H-inden-1-yl)sulfamide]
EC50 (S1P1/EDG1; [2]): 0.03 nM | EC50 (S1P1/EDG1; agonist activity range, Table 2, read-out: S1P1 ACTIVITY): < 0.05 nM | EC50 (S1P4): > 10000 nM | inhibition in vivo at 0.2 mg/kg ([1]; CD8 positive, po): 17% | EC50 (S1P3): > 10000 nM | EC50 (S1P5): 22 nM | EC50 (S1P2): > 10000 nM

(R)-N-(4-(5-(3-cyano-4-isopropoxyphenyl)-1,3,4-thiadiazol-2-yl)-2,3-dihydro-1H-inden-1-yl)-2-hydroxyethanesulfonamide [Compound 46]
EC50 (S1P1/EDG1; [2]): 0.25 nM | EC50 (S1P4): 2170 nM | % Lymphopenia after 24 h (0.2 mg/kg) [1]: 39% | EC50 (S1P5): 194 nM
